The target of this experiment is T1, α7-subtype of nicotinic receptors (Rattus norvegicus, UniProt Q05941).
T1 construct: Cerebral cortices from male Wistar rats (150-250 g) are homogenised; from tissue; host or cells: rat cerebral cortex membrane homogenate
Kind of experiment: In vitro inhibition of 3H-α-bungarotoxine binding in rat brain. The conditions noted are these: rat cerebral cortex homogenate; 3H-α-bungarotoxine 2 nM; 2 hours at 37° C.

The structures appear in SMILES notation. Structures can show the parent of a compound that is named as a salt.

T1 sequence (Q05941 23-502): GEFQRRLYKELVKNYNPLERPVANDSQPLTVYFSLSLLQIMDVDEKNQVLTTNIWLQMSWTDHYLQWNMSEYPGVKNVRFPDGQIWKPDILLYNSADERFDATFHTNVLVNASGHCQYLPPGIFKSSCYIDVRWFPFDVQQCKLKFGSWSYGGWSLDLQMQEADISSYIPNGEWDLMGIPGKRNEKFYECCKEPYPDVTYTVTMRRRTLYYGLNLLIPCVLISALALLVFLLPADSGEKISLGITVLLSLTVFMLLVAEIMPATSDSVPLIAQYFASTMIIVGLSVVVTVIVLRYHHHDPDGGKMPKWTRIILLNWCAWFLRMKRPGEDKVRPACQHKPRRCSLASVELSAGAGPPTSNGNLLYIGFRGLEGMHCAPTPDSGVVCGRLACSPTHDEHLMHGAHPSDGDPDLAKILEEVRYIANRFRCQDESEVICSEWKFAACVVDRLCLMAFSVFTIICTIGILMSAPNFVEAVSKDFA

`O=C(Nc1ccc(-c2ccc(C(=O)NC3CN4CCC3CC4)o2)cc1)c1ccccc1` (racemic) [Compound 1, (±)5-(4-Benzoylamino-phenyl)-furan-2-carboxylic acid(1-aza-bicyclo[2.2.2]oct-3-yl)-amide hydrochloric acid salt] displayed a half-maximal inhibitory concentration (IC50) of 80 nM.

Broadly, the IC50 is the point on the concentration scale where inhibition reaches its midpoint.

The values above are taken from patent US7514450B2, “Azabicyclic aryl derivatives” (NeuroSearch A/S, priority 2004, dated 2009).
